Like-named read-outs stand apart in the source and are kept apart here.
Assays:
1A9 ovarian carcinoma = assay: Anchorage Dependent Growth Monolayer Assay (ADGMA), MTT, 3-day exposure; assay type: cell-based; conditions: Homo sapiens, read-out: IC50 (average±S.E.M.) 1A9
Excerpt: (§1) As indicated above, all of the compounds of formula I are anti-tumor agents and are, therefore, useful in inhibiting the growth of various lymphomas, sarcomas, carcinomas, myelomas, and leukemia cell lines. […] This assay was adapted from the 60 cell line assay used by the National Cancer Institute (NCI) with the following modifications:
(§2) 1) four cell lines representative for the important tumor types, viz., MIP 101 colon carcinoma, HCT 116 colon carcinoma, 1A9 ovarian carcinoma and 1A9PTX22 ovarian carcinoma were utilized; and
(§3) 2) a tetrazolium derivative, viz., MTT, was utilized to determine cell density.
(§4) The ADGMA compares the number of viable cells following a 3-day exposure to a test compound relative to a number of cells present at the time the test compound was added. […] The absorbence at 540 nm (A540) of the formazan derivative is proportional to the number of viable cells. The IC50 for a test compound is the concentration of compound required to reduce the final cell number to 50% of the final control cell number. If cell proliferation is inhibited, the assay further defines compounds as cytostatic (cell number after 3-day compound incubation>cell number at time of compound addition) or cytotoxic (cell number after 3-day compound incubation<cell number at time of compound addition).
(§5) The HCT 116 colon carcinoma cell line was obtained from the American Type Culture Collection (ATCC, Rockville, Md.). The MIP 101 colon carcinoma was obtained from Dr. Robert Kramer (Bristol Meyers Squibb) and was previously described (Niles R M, Wilhelm S A, Steele G D JR, Burke B, Christensen T, Dexter D, O'Brien M J, Thomas P, Zamcheck N. Isolation and characterization of an undifferentiated human colon carcinoma cell line (MIP-101). Cancer Invest. 1987;5(6):545-52.). The 1A9 and the 1A9PTX22 ovarian tumor cell lines were obtained from Dr. Tito Fojo, Medicine Branch, Division of Clinical Sciences, National Cancer Institute, National Institutes of Health, Bethesda, Md. 20892. The 1A9 is a clone of the ovarian carcinoma cell line, A2780 (Giannakakou P, Sackett, D L, Kang Y -K, Zhan Z, Buters J T M, Fojo T, Poruchynsky M S. Paclitaxel-resistant human ovarian cancer cells have mutant β-tubulins that impaired paclitaxel-driven polymerization. J. Biol. Chem. 1997, 272(4):17118-17125). The 1A9PTX22 subline was isolated as an individual clone from the 1A9 cell line in a single step selection by exposure to 5 ng/mL paclitaxel in the presence of 5 μg/mL of verapamil. All cell lines were used between passages 4-20 following thawing. MIP 101 colon carcinoma, HCT 116 colon carcinoma, 1A9 ovarian carcinoma and 1A9PTX22 ovarian carcinoma cell lines are maintained and plated in RPMI 1640 medium containing 10% fetal bovine serum.
(§6) Cells are trypsinized and counted using hemacytometer to determine cell concentrations. Cells were then plated in their respective maintenance media (200 μL/well) in 96-well plates at the following concentrations: MIP 101, 2000 cells/well, HCT 116, 2000 cells/well, 1A9, 10000 cells/well, and 1A9PTX22, 10000 cells/well. […] Initial cell densities, assayed one day after plating, are roughly 0.10-0.20 A540 absorbence units greater than the media blank. Ninety six well plates were seeded on day 0 and the test compounds are added on day 1. A “time 0” plate was created that received media only in row A and one cell line/row in rows B-E. The “time 0” plate was processed 24 hours after plating (at the time when drugs were added to experimental plates), as follows: To each well 5 microliters of the MTT stock solution (0.5 mg/ml in PBS) was added to each well and then incubated for three hours at 37 degrees C., 5% CO2, in a humidified environment. Media was then carefully and completely removed. Plates were allowed to dry in the dark. DMSO (dimethylsulfoxide) was added to each well (100 μl/well) and plates were placed on an orbital shaker for 2 hours. […]

[1] = system: 1A9PTX22 ovarian carcinoma; assay: as above; assay type: cell-based; conditions: Homo sapiens, 1A9/ptx-22, 72 h, read-out: IC50 (average±S.E.M.) 1A9PTX22
Excerpt: as §1, §2, §3, §4, §5, §6

HCT 116 colon carcinoma = assay: as above; assay type: cell-based; conditions: Homo sapiens, read-out: IC50 (average±S.E.M.) HCT116
Excerpt: as §1, §2, §3, §4, §5, §6

MIP 101 colon carcinoma = assay: as above; assay type: cell-based; conditions: Homo sapiens, 72 h, read-out: IC50 (average±S.E.M.) MIP101
Excerpt: as §1, §2, §3, §4, §5, §6

[2] = Body weight change of athymic nude mice in the hollow fiber model; assay type: in vivo; conditions: Paclitaxel 15 mg/kg i.v. daily for 5 days, Ex. 1 45 mg/kg i.v. once; for Δ Mean % Body Weight, Exp. 1: Experiment 1; for Δ Mean % Body Weight, Exp. 2: Experiment 2
Protocol: Outbred athymic (nu/nu) female mice (“Chrls:Athymic Nude-nu”, Charles River Laboratories, Wilmington, Mass.) were anesthetized with ip injections of Ketamine/Xylazine (150 mg/kg, and 12 mg/kg body weight, respectively). For the subcutaneous implantation an 11-gauge trocar containing one or two hollow fibers was inserted through an incision made with scissors at the nape of the neck of an animal, and fibers were released by retracting the trocar while depressing the plunger. This procedure was repeated until all four hollow fibers were implanted. One wound clip was used to close the skin incision. After the surgery each animal received a single, subcutaneous injection of 0.4 mg/kg butorphenol to relieve any potential pain. Animals recovered from the anesthesia on a heating pad, before returning to their cages.
One day after the implantation (4 hollow fibers/animal, each hollow fiber containing one cell line: HCT 116, MIP 101, 1A9, and 1A9PTX22) animals were randomly sorted into five groups of six mice/group. The first group was sacrificed, hollow fibers were retrieved, and processed according to a published procedure, to determine the number of viable cells in each fiber (T0.)
The remaining groups were treated as follows:
Group 1: Example 1, 45 mg/kg, iv, once.
Group 2: Vehicle for Example 1 (16.7% Cremophor EL, 8.3% ethanol, 75% D5W), iv, once.
Group 3: Paclitaxel, 15 mg/kg, iv, daily for 5 days.
Group 4: Vehicle for paclitaxel (12.5% Cremophor EL, 12.5% ethanol, 75% D5W) iv, daily for 5 days.
On day 7 all animals were sacrificed, and hollow fibers were retrieved and processed according to a published procedure, to determine the number of viable cells in each fiber (T—for fibers from animals treated with experimental compounds, C—for fibers from animals treated with corresponding vehicles). Antitumor activity was expressed as % Mean ΔT/Mean ΔC [comparing cell growth for treatment group to vehicle control group, where % Mean ΔT/Mean ΔC=(Mean T−Mean T0/Mean C−Mean T0)×100%]. Regressions were calculated using the formula: (1−Mean T/Mean T0)×100%. Statistical significance of the results was uniformly evaluated using a two-tailed Student's t-test, as recommended by a statistician, following analysis of our representative experiments (Colin Goodal, statistical consultant to Novartis, personal communication).

1A9PTX22 cell line = conditions: 1A9PTX22 vs parental 1A9; cited from earlier work

IC50 (1A9 ovarian carcinoma; 72 h, 1A9 cells, 3-day exposure, MTT) | IC50 ([1]; 1A9PTX22 cells, 3-day exposure, MTT) | IC50 (HCT 116 colon carcinoma; 72 h, HCT 116 cells, 3-day exposure, MTT) | IC50 (MIP 101 colon carcinoma; MIP 101 cells, 3-day exposure, MTT) | Compound | IC50 (1A9 ovarian carcinoma; 1A9, 72 h) | IC50 [1] | IC50 (HCT 116 colon carcinoma; HCT-116, 72 h) | IC50 (MIP 101 colon carcinoma) | Δ Mean % Body Weight, Exp. 1 [2] | Δ Mean % Body Weight, Exp. 2 [2] | Resistance to paclitaxel of 1A9PTX22 relative to parental 1A9 (1A9PTX22 cell line)
– | – | – | – | C=C/C=C\[C@H](C)[C@H](OC(N)=O)[C@@H](C)[C@@H](O)[C@@H](C)C/C(C)=C\[C@H](C)[C@@H](O)[C@@H](C)/C=C\[C@@H](O)C[C@H](O)[C@H](C)[C@H](O)[C@@H](C)C(=O)[O-].[Na+] [Ex. 1, (2R,3S,4S,5S,7S,8Z,10S,11S,12S,13Z,16S,17S,18S,19S,20S,21Z)-19-[(aminocarbonyl)oxy]-3,5,7,11,17-pentahydroxy-2,4,10,12,14,16,18,20-octamethyl-8,13,21,23-tetracosatetraenoic acid, sodium salt] | 0.1 ± 0.04 µM | 0.2 ± 0.09 µM | 0.05 ± 0.02 µM | 0.3 ± 0.01 µM | Exp. 1: None | Exp. 2: None | –
0.047 ± 0.007 µM | 0.001 ± 0.001 µM | 0.0003 ± 0.0002 µM | 0.2 ± 0.06 µM | CC(=O)O[C@H]1C(=O)[C@@]2(C)[C@H]([C@H](OC(=O)c3ccccc3)[C@]3(O)C[C@H](OC(=O)[C@H](O)[C@@H](NC(=O)c4ccccc4)c4ccccc4)C(C)=C1C3(C)C)[C@]1(OC(C)=O)CO[C@@H]1C[C@@H]2O [paclitaxel] | – | – | – | – | Exp. 1: None | Exp. 2: None | 24 fold

Reference: patent US6734177B2, “Certain salts of discodermolide acid, pharmaceutical compositions containing them and their use in treating tumors” (Novartis AG, priority 2001, dated 2004)
